Here are results for one compound from paper PMC6934184, “Selective DNA-PKcs inhibition extends the therapeutic index of localized radiotherapy and chemotherapy” (The Journal of Clinical Investigation, 2019).

For this assay, the target named is T1, CAMK1D (CaMKI delta) (Homo sapiens, UniProt Q8IU85).
T1 construct: purchased Thermo Fisher Scientific (Life Technologies) SelectScreen
Kind of assay: SelectScreen Z'LYTE. Type of assay: biochemical. A digest of the protocol: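 Percent values come from Thermo SelectScreen profiling of NU5455, combining activity and binding assays. CSF1R was run in Z'LYTE format at Km app ATP, and CAMK1 in Adapta format with ATP listed at 10.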

Each structure is given as a SMILES string.

T1 sequence (Q8IU85 whole entry): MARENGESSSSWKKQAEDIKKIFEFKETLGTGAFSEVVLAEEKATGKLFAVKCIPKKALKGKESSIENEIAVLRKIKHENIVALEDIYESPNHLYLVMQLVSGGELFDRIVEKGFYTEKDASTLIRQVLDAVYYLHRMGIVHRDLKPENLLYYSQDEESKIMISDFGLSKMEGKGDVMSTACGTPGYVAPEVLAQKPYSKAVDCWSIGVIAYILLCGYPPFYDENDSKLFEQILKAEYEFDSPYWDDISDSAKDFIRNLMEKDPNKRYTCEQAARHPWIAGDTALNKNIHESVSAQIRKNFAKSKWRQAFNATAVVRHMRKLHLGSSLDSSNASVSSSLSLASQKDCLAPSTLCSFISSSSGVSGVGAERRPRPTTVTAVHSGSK

Turning to `CN(C(=O)CN1CCOCC1)c1ccc2sc3c(-c4cccc5c(=O)cc(N6CC7CCC(C6)O7)oc45)cccc3c2c1` [NU5455], at 1 µM the inhibition was 4.1%.

For orientation: inhibition means the share of the control response that was lost under treatment.
